From PMC5218480 (PLoS ONE, 2017)

System: MV-4-11 cells
Assay: Gene expression microarray analysis (Affymetrix PrimeView) and GSEA
Type: cell-based, human
Parameters: RFU PODN (11730768_x_at) / Fold change /veh PODN (11730768_x_at) / RFU LINC00158 (11744669_a_at) / Fold change /veh LINC00158 (11744669_a_at) / RFU DUSP10 (11751237_a_at) / Fold change /veh DUSP10 (11751237_a_at) / RFU ID3 (11757404_x_at) / Fold change /veh ID3 (11757404_x_at) / RFU PLEKHG5 (11737974_s_at) / Fold change /veh PLEKHG5 (11737974_s_at) / RFU LRRC4B (11730491_at) / Fold change /veh LRRC4B (11730491_at) / RFU GIMAP4 (11747438_a_at) / Fold change /veh GIMAP4 (11747438_a_at) / RFU KRT8 (11758183_x_at) / Fold change /veh KRT8 (11758183_x_at) / RFU CNN1 (11734310_a_at) / Fold change /veh CNN1 (11734310_a_at) / RFU VPS37D (11726825_at) / Fold change /veh VPS37D (11726825_at) / RFU C10orf10 (11716522_x_at) / Fold change /veh C10orf10 (11716522_x_at) / RFU KIR2DL2 /// KIR2DL4 /// KIR2DL5A /// KIR2DL5B /// KIR2DS1 /// KIR2DS2 /// KIR2DS3 /// KIR2DS4 /// KIR3DL3 /// KIR3DL3 /// KIR3DS1 (11738374_at) / Fold change /veh KIR2DL2 /// KIR2DL4 /// KIR2DL5A /// KIR2DL5B /// KIR2DS1 /// KIR2DS2 /// KIR2DS3 /// KIR2DS4 /// KIR3DL3 /// KIR3DL3 /// KIR3DS1 (11738374_at) / RFU C1QL1 (11718748_at) / Fold change /veh C1QL1 (11718748_at) / RFU TMPRSS4 (11747572_a_at) / Fold change /veh TMPRSS4 (11747572_a_at) / RFU HAMP (11756126_x_at) / Fold change /veh HAMP (11756126_x_at) / RFU RNFT2 (11725882_a_at) / Fold change /veh RNFT2 (11725882_a_at) / RFU NR4A2 (11747474_a_at) / Fold change /veh NR4A2 (11747474_a_at) / RFU ABCC12 (11746883_a_at) / Fold change /veh ABCC12 (11746883_a_at) / RFU TMEM136 (11760407_x_at) / Fold change /veh TMEM136 (11760407_x_at) / RFU CLDN22 /// WWC2 (11732394_at) / Fold change /veh CLDN22 /// WWC2 (11732394_at) / RFU HLA-DPB1 (11760878_x_at) / Fold change /veh HLA-DPB1 (11760878_x_at) / RFU SPINT1 (11716480_a_at) / Fold change /veh SPINT1 (11716480_a_at) / RFU GAP43 (11754022_s_at) / Fold change /veh GAP43 (11754022_s_at) / RFU A4GNT (11735810_at) / Fold change /veh A4GNT (11735810_at) / RFU PRB3 (11715151_x_at) / Fold change /veh PRB3 (11715151_x_at) / RFU TUBB4B (11761932_at) / Fold change /veh TUBB4B (11761932_at) / RFU CAPN14 (11732068_a_at) / Fold change /veh CAPN14 (11732068_a_at) / RFU TMCC2 (11721928_a_at) / Fold change /veh TMCC2 (11721928_a_at) / RFU IRGQ (11745062_a_at) / Fold change /veh IRGQ (11745062_a_at) / RFU FAM174B (11720279_a_at) / Fold change /veh FAM174B (11720279_a_at) / RFU TMPRSS4 (11748680_a_at) / Fold change /veh TMPRSS4 (11748680_a_at) / RFU FAM212B (11763350_a_at) / Fold change /veh FAM212B (11763350_a_at) / RFU PLEKHG5 (11743358_a_at) / Fold change /veh PLEKHG5 (11743358_a_at) / RFU ZSCAN30 (11745921_a_at) / Fold change /veh ZSCAN30 (11745921_a_at) / RFU CMKLR1 (11741424_a_at) / Fold change /veh CMKLR1 (11741424_a_at) / RFU LOC101060620 /// MAPK8IP1 (11723275_at) / Fold change /veh LOC101060620 /// MAPK8IP1 (11723275_at) / RFU SPTSSB (11747773_x_at) / Fold change /veh SPTSSB (11747773_x_at) / RFU PRSS12 (11739890_at) / Fold change /veh PRSS12 (11739890_at) / RFU BIN1 (11741810_x_at) / Fold change /veh BIN1 (11741810_x_at) / RFU WNT11 (11732464_a_at) / Fold change /veh WNT11 (11732464_a_at) / RFU C10orf10 (11716521_a_at) / Fold change /veh C10orf10 (11716521_a_at) / RFU C5orf56 (11738089_at) / Fold change /veh C5orf56 (11738089_at) / RFU CYB561 (11721691_x_at) / Fold change /veh CYB561 (11721691_x_at) / RFU ANKRD19P (11752326_a_at) / Fold change /veh ANKRD19P (11752326_a_at) / RFU OR2T12 /// OR2T33 /// OR2T8 (11738714_s_at) / Fold change /veh OR2T12 /// OR2T33 /// OR2T8 (11738714_s_at) / RFU VCAN (11748164_a_at) / Fold change /veh VCAN (11748164_a_at) / RFU JSRP1 (11732532_at) / Fold change /veh JSRP1 (11732532_at) / RFU KRTAP10-11 (11738290_x_at) / Fold change /veh KRTAP10-11 (11738290_x_at) / RFU MYO3A (11730013_a_at) / Fold change /veh MYO3A (11730013_a_at) / RFU EBF3 (11725865_a_at) / Fold change /veh EBF3 (11725865_a_at) / RFU CAMK2N1 (11719241_x_at) / Fold change /veh CAMK2N1 (11719241_x_at) / RFU C5orf56 (11738088_a_at) / Fold change /veh C5orf56 (11738088_a_at) / RFU OLFML3 (11715873_a_at) / Fold change /veh OLFML3 (11715873_a_at) / RFU LOC100653217 /// NTM (11731650_a_at) / Fold change /veh LOC100653217 /// NTM (11731650_a_at) / RFU MAPK11 (11762145_a_at) / Fold change /veh MAPK11 (11762145_a_at) / RFU FIZ1 (11724087_x_at) / Fold change /veh FIZ1 (11724087_x_at) / RFU OASL (11726364_x_at) / Fold change /veh OASL (11726364_x_at) / RFU SOX15 (11748057_x_at) / Fold change /veh SOX15 (11748057_x_at) / RFU CD79A (11719716_a_at) / Fold change /veh CD79A (11719716_a_at) / RFU HIST1H1D (11736915_at) / Fold change /veh HIST1H1D (11736915_at) / RFU CASKIN2 (11723855_a_at) / Fold change /veh CASKIN2 (11723855_a_at) / RFU LOC730098 (11760151_x_at) / Fold change /veh LOC730098 (11760151_x_at) / RFU OR4N2 (11742367_at) / Fold change /veh OR4N2 (11742367_at) / RFU PRRT2 (11749266_a_at) / Fold change /veh PRRT2 (11749266_a_at) / RFU SNX32 (11753110_a_at) / Fold change /veh SNX32 (11753110_a_at) / RFU CDHR5 (11726645_a_at) / Fold change /veh CDHR5 (11726645_a_at) / RFU RCAN1 (11760418_a_at) / Fold change /veh RCAN1 (11760418_a_at) / RFU FAM167A (11723789_a_at) / Fold change /veh FAM167A (11723789_a_at) / RFU FAM26E (11764081_at) / Fold change /veh FAM26E (11764081_at) / RFU ISYNA1 (11749810_s_at) / Fold change /veh ISYNA1 (11749810_s_at) / RFU ACY1 (11761880_at) / Fold change /veh ACY1 (11761880_at) / RFU 11764098_at / Fold change /veh 11764098_at / RFU SAMD14 (11745864_x_at) / Fold change /veh SAMD14 (11745864_x_at) / RFU NPB (11741838_a_at) / Fold change /veh NPB (11741838_a_at) / RFU TMPRSS6 (11731388_a_at) / Fold change /veh TMPRSS6 (11731388_a_at) / RFU KRTAP10-2 (11738614_at) / Fold change /veh KRTAP10-2 (11738614_at) / RFU ARHGAP8 /// PRR5-ARHGAP8 (11727945_x_at) / Fold change /veh ARHGAP8 /// PRR5-ARHGAP8 (11727945_x_at) / RFU KRTAP5-7 /// NADSYN1 (11734609_at) / Fold change /veh KRTAP5-7 /// NADSYN1 (11734609_at) / RFU RASL12 (11751679_a_at) / Fold change /veh RASL12 (11751679_a_at) / RFU CDKN2B (11736163_a_at) / Fold change /veh CDKN2B (11736163_a_at) / RFU PRF1 (11729649_at) / Fold change /veh PRF1 (11729649_at) / RFU, ZNF638 /// ZNF638-IT1 / Fold change vs veh, ZNF638 /// ZNF638-IT1 / RFU, PANK3 / Fold change vs veh, PANK3 / RFU, SH3YL1 / Fold change vs veh, SH3YL1 / RFU, ZEB2 / Fold change vs veh, ZEB2 / RFU, NRIP1 / Fold change vs veh, NRIP1 / RFU, PTTG1IP / Fold change vs veh, PTTG1IP / RFU, CAPN2 / Fold change vs veh, CAPN2 / RFU, MED14 / Fold change vs veh, MED14 / RFU, SNORA58 / Fold change vs veh, SNORA58 / RFU, C1orf63 / Fold change vs veh, C1orf63 / RFU, LRRFIP1 / Fold change vs veh, LRRFIP1 / RFU, NDUFAF7 / Fold change vs veh, NDUFAF7 / RFU, SLC12A2 / Fold change vs veh, SLC12A2 / RFU, IBTK / Fold change vs veh, IBTK / RFU, ESF1 / Fold change vs veh, ESF1 / Fold change vs veh, TMEM50B / RFU, TAOK1 / Fold change vs veh, TAOK1 / RFU, ACBD3 / Fold change vs veh, ACBD3 / RFU, TMA16 / Fold change vs veh, TMA16 / RFU, RWDD3 / Fold change vs veh, RWDD3 / RFU, BCAT1 / Fold change vs veh, BCAT1 / RFU, EDEM3 / Fold change vs veh, EDEM3 / RFU, TMEM33 / Fold change vs veh, TMEM33 / RFU, WDR75 / Fold change vs veh, WDR75 / RFU, AHCTF1 / Fold change vs veh, AHCTF1 / RFU, TFRC / Fold change vs veh, TFRC / RFU, ZDHHC17 / Fold change vs veh, ZDHHC17 / RFU, NOM1 / Fold change vs veh, NOM1 / RFU, ARL8B / Fold change vs veh, ARL8B / RFU, ZBTB11 / Fold change vs veh, ZBTB11 / RFU, TAMM41 / Fold change vs veh, TAMM41 / RFU, KIAA1704 /// LOC100996395 / Fold change vs veh, KIAA1704 /// LOC100996395 / RFU, ING1 / Fold change vs veh, ING1 / RFU, TRMT61B / Fold change vs veh, TRMT61B / RFU, FUBP3 / Fold change vs veh, FUBP3 / RFU, TP53 / Fold change vs veh, TP53 / RFU, TNKS2 / Fold change vs veh, TNKS2 / RFU, ZFP14 / Fold change vs veh, ZFP14 / RFU, ACTR2 / Fold change vs veh, ACTR2 / RFU, PPP3R1 / Fold change vs veh, PPP3R1 / RFU, PIK3R1 / Fold change vs veh, PIK3R1 / RFU, HNRNPA1 / Fold change vs veh, HNRNPA1 / RFU, RNF170 / Fold change vs veh, RNF170 / RFU, ZNF28 / Fold change vs veh, ZNF28 / RFU, RNGTT / Fold change vs veh, RNGTT / RFU, OGT / Fold change vs veh, OGT / RFU, BRD1 / Fold change vs veh, BRD1 / RFU, MARS / Fold change vs veh, MARS / RFU, ZNF655 / Fold change vs veh, ZNF655 / RFU, FAHD1 / Fold change vs veh, FAHD1 / RFU, BDP1 / Fold change vs veh, BDP1 / RFU, LRRCC1 / Fold change vs veh, LRRCC1 / RFU, ARID1A / Fold change vs veh, ARID1A / RFU, ZNF146 / Fold change vs veh, ZNF146 / RFU, ZNF330 / Fold change vs veh, ZNF330 / RFU, GPN3 / Fold change vs veh, GPN3 / RFU, C9orf123 / Fold change vs veh, C9orf123 / RFU, N4BP2L2 / Fold change vs veh, N4BP2L2 / RFU, ARFIP1 / Fold change vs veh, ARFIP1 / RFU, FAM179B / Fold change vs veh, FAM179B / RFU, BCL10 / Fold change vs veh, BCL10 / RFU, UHRF1BP1L / Fold change vs veh, UHRF1BP1L / RFU, BET1 / Fold change vs veh, BET1 / RFU, CNOT2 / Fold change vs veh, CNOT2 / RFU, ZNF268 / Fold change vs veh, ZNF268 / Fold change vs veh, ZNF507 / RFU, DGCR2 / Fold change vs veh, DGCR2 / RFU, WDSUB1 / Fold change vs veh, WDSUB1 / Fold change vs veh, HSP90B1 /// MIR3652 / RFU, ADSS / Fold change vs veh, ADSS / RFU, GK / Fold change vs veh, GK / RFU, ZNF148 / Fold change vs veh, ZNF148 / RFU, TAF9 / Fold change vs veh, TAF9 / RFU, SLC1A5 / Fold change vs veh, SLC1A5 / RFU, SLMO2 / Fold change vs veh, SLMO2 / RFU, ABCC4 / Fold change vs veh, ABCC4 / RFU, LOC101060439 /// RAP1B / Fold change vs veh, LOC101060439 /// RAP1B / RFU, RFX7 / Fold change vs veh, RFX7 / RFU, GTPBP10 / Fold change vs veh, GTPBP10 / RFU, CNEP1R1 / Fold change vs veh, CNEP1R1 / RFU, BIVM-ERCC5 /// ERCC5 / Fold change vs veh, BIVM-ERCC5 /// ERCC5 / RFU, ILF3 / Fold change vs veh, ILF3 / RFU 11762660_at / Fold change /veh 11762660_at / RFU VCAN (11757783_s_at) / Fold change /veh VCAN (11757783_s_at) / RFU DDX43 (11728927_at) / Fold change /veh DDX43 (11728927_at) / RFU KRT8 (11758188_x_at) / Fold change /veh KRT8 (11758188_x_at) / RFU NKD1 (11759106_at) / Fold change /veh NKD1 (11759106_at) / RFU SRD5A1 (11742802_a_at) / Fold change /veh SRD5A1 (11742802_a_at) / RFU TPSAB1 /// TPSB2 (11721975_s_at) / Fold change /veh TPSAB1 /// TPSB2 (11721975_s_at) / RFU GSTM3 (11746129_a_at) / Fold change /veh GSTM3 (11746129_a_at) / RFU IL23R (11737362_x_at) / Fold change /veh IL23R (11737362_x_at) / RFU TMEM51 (11727254_a_at) / Fold change /veh TMEM51 (11727254_a_at) / RFU PIWIL2 (11732686_x_at) / Fold change /veh PIWIL2 (11732686_x_at) / RFU ORM1 (11744905_x_at) / Fold change /veh ORM1 (11744905_x_at) / RFU CCDC152 (11743942_at) / Fold change /veh CCDC152 (11743942_at) / RFU ECM1 (11717891_a_at) / Fold change /veh ECM1 (11717891_a_at) / RFU IL23R (11748794_a_at) / Fold change /veh IL23R (11748794_a_at) / RFU TNFAIP8L3 (11732012_x_at) / Fold change /veh TNFAIP8L3 (11732012_x_at) / RFU MBOAT4 (11741988_at) / Fold change /veh MBOAT4 (11741988_at) / RFU 11764193_at / Fold change /veh 11764193_at / RFU TMEM53 (11763286_at) / Fold change /veh TMEM53 (11763286_at) / RFU MAGEB2 (11727129_at) / Fold change /veh MAGEB2 (11727129_at) / RFU TMEM200A (11744735_a_at) / Fold change /veh TMEM200A (11744735_a_at) / RFU CCDC152 (11751479_a_at) / Fold change /veh CCDC152 (11751479_a_at) / RFU FAM211A (11726209_a_at) / Fold change /veh FAM211A (11726209_a_at) / RFU RGS16 (11746705_a_at) / Fold change /veh RGS16 (11746705_a_at) / RFU VCAN (11755009_s_at) / Fold change /veh VCAN (11755009_s_at) / RFU RHOB (11743442_s_at) / Fold change /veh RHOB (11743442_s_at) / RFU RGS16 (11720943_a_at) / Fold change /veh RGS16 (11720943_a_at) / RFU RGS16 (11720944_at) / Fold change /veh RGS16 (11720944_at) / RFU, VPS4B / Fold change vs veh, VPS4B / RFU, CREB1 / Fold change vs veh, CREB1 / RFU, DNAJC13 / Fold change vs veh, DNAJC13 / RFU, GNAQ / Fold change vs veh, GNAQ / RFU, CDK5R1 / Fold change vs veh, CDK5R1 / RFU, ZRANB3 / Fold change vs veh, ZRANB3 / RFU, CUL4A / Fold change vs veh, CUL4A / RFU, CCNY / Fold change vs veh, CCNY / RFU, UFL1 / Fold change vs veh, UFL1 / RFU, COG3 / Fold change vs veh, COG3 / RFU, DIAPH2 / Fold change vs veh, DIAPH2 / RFU, SKA2 / Fold change vs veh, SKA2 / RFU, AFF3 / Fold change vs veh, AFF3 / RFU, LMF1 / Fold change vs veh, LMF1 / RFU, IPO11 / Fold change vs veh, IPO11 / RFU, DFFB / Fold change vs veh, DFFB / RFU, FOXP1 / Fold change vs veh, FOXP1 / RFU, CARD8 / Fold change vs veh, CARD8 / RFU, STRN3 / Fold change vs veh, STRN3 / RFU, ADK / Fold change vs veh, ADK / RFU, RASSF2 / Fold change vs veh, RASSF2 / RFU, WIPF1 / Fold change vs veh, WIPF1 / RFU, LARP1B / Fold change vs veh, LARP1B / RFU, RASA1 / Fold change vs veh, RASA1 / RFU, RB1 / Fold change vs veh, RB1 / RFU, PPFIA1 / Fold change vs veh, PPFIA1 / RFU, MAT2A / Fold change vs veh, MAT2A / RFU, CCT5 / Fold change vs veh, CCT5 / RFU, WDR92 / Fold change vs veh, WDR92 / RFU, CUX1 / Fold change vs veh, CUX1 / RFU, TTC7A / Fold change vs veh, TTC7A / RFU, TMEM135 / Fold change vs veh, TMEM135 / RFU, DEPTOR / Fold change vs veh, DEPTOR / RFU, CPM / Fold change vs veh, CPM / RFU, DNAJB6 / Fold change vs veh, DNAJB6 / RFU, CACNA2D3 / Fold change vs veh, CACNA2D3 / RFU, DTX4 / Fold change vs veh, DTX4 / RFU, TFCP2 / Fold change vs veh, TFCP2 / RFU, GMCL1 /// GMCL1P1 / Fold change vs veh, GMCL1 /// GMCL1P1 / RFU, AEBP2 / Fold change vs veh, AEBP2 / RFU, SNHG1 /// SNORD22 /// SNORD25 /// SNORD26 /// SNORD27 /// SNORD28 /// SNORD29 /// SNORD31 / Fold change vs veh, SNHG1 /// SNORD22 /// SNORD25 /// SNORD26 /// SNORD27 /// SNORD28 /// SNORD29 /// SNORD31 / Fold change (Aza/veh), C12orf56 (ProbeSet 11735607_a_at) / Fold change (ACY-1035/veh), C12orf56 (ProbeSet 11735607_a_at) / Fold change (Aza/veh), FGFR1OP (ProbeSet 11751329_s_at) / Fold change (ACY-1035/veh), FGFR1OP (ProbeSet 11751329_s_at) / Fold change (Aza/veh), VPS36 (ProbeSet 11739960_a_at) / Fold change (ACY-1035/veh), VPS36 (ProbeSet 11739960_a_at) / RFU SYPL1 (11715823_x_at) / Fold change /veh SYPL1 (11715823_x_at) / RFU IGFBP7 (11715501_s_at) / Fold change /veh IGFBP7 (11715501_s_at) / RFU REEP3 (11722064_at) / Fold change /veh REEP3 (11722064_at) / RFU IGLL1 (11728026_x_at) / Fold change /veh IGLL1 (11728026_x_at): dose or concentration left out as unconfirmed
Conditions: ProbeSet 11716331_a_at; LIST D

Compound: Nc1ccc(-c2cccs2)cc1NC(=O)c1ccc2c(c1)cc(C1CC1)n2CCN1CCOCC1 [ACY-1035]
- RFU, DNAJB6: 348.58 RFU
